Laboratory results as given in PubChem BioAssay AID256 (DTP/NCI, 2004).
Several values for one entry are separate records, joined by “and”; a condition that tells them apart may be missing. Equal entries are not always repeated. Toxic doses and inconclusive results are not listed.

System: CD2F1 mice, L1210 leukemia ip, survival T/C
Test: NCI In Vivo Anticancer Drug Screen. Data for tumor model L1210 Leukemia (intraperitoneal) in CD2F1 (CDF1) mice
Conditions: higher = longer survival
Method in brief: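 Compound-dosed mice with transplantable tumor versus matched vehicle controls; endpoint ratio T/C reported.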

[1] = endpoint: mean survival time, dose: 100.0 mg/kg/injection, schedule: Q04DX003 (ip), vehicle: saline with Tween-80
[2] = endpoint: mean survival time, dose: 100.0 mg/kg/injection, schedule: Q01DX009 (ip), vehicle: saline with Tween-80
[3] = endpoint: mean survival time, dose: 200.0 mg/kg/injection, schedule: Q01DX009 (ip), vehicle: saline with Tween-80
[4] = endpoint: mean survival time, dose: 200.0 mg/kg/injection, schedule: Q04DX003 (ip), vehicle: saline with Tween-80
[5] = endpoint: mean survival time, dose: 400.0 mg/kg/injection, schedule: Q01DX009 (ip), vehicle: saline with Tween-80
[6] = endpoint: mean survival time, dose: 400.0 mg/kg/injection, schedule: Q04DX003 (ip), vehicle: saline with Tween-80
[7] = endpoint: mean survival time, dose: 50.0 mg/kg/injection, schedule: Q01DX009 (ip), vehicle: Klucel (hydroxypropylcellulose) (HPC)
[8] = endpoint: mean survival time, dose: 50.0 mg/kg/injection, schedule: Q01DX009 (ip), vehicle: saline with Tween-80
[9] = endpoint: mean survival time, dose: 100.0 mg/kg/injection, schedule: Q01DX009 (ip), vehicle: Klucel (hydroxypropylcellulose) (HPC)
[10] = endpoint: mean survival time, dose: 200.0 mg/kg/injection, schedule: Q01DX009 (ip), vehicle: Klucel (hydroxypropylcellulose) (HPC)
[11] = endpoint: mean survival time, dose: 100.0 mg/kg/injection, schedule: Q04DX002 (ip), vehicle: saline with Tween-80
[12] = endpoint: mean survival time, dose: 200.0 mg/kg/injection, schedule: Q04DX002 (ip), vehicle: saline with Tween-80

With `CN=NNc1ccccc1` the T/C (endpoint: mean survival time, dose: 75.0 mg/kg/injection, schedule: Q01DX001 (ip), vehicle: saline) was 117 % of control, the T/C (endpoint: mean survival time, dose: 75.0 mg/kg/injection, schedule: Q04DX003 (ip), vehicle: saline with Tween-80) was 122 % of control and the T/C [1] was 119 % of control. The T/C (endpoint: mean survival time, dose: 150.0 mg/kg/injection, schedule: Q04DX003 (ip), vehicle: saline with Tween-80) was 153 % of control and the T/C (endpoint: mean survival time, dose: 225.0 mg/kg/injection, schedule: Q04DX003 (ip), vehicle: saline with Tween-80) was 86 % of control.
In the case of `O=C(O)C(c1ccccc1)C(F)(F)F` (configuration not stated), the T/C [2] was 95 % of control, the T/C [1] was 108 % of control and the T/C [3] was 105 % of control. The T/C [4] was 94 % of control, the T/C [5] was 94 % of control and the T/C [6] was 92 % of control.
With `CCCCC1(C2CCCC2)NC(C)(C)CC(C)O1` (configuration not stated) the T/C (endpoint: mean survival time, dose: 100.0 mg/kg/injection, schedule: Q04DX003 (ip), vehicle: saline) was 97 % of control, the T/C (endpoint: mean survival time, dose: 200.0 mg/kg/injection, schedule: Q04DX003 (ip), vehicle: saline) was 96 % of control and the T/C (endpoint: mean survival time, dose: 400.0 mg/kg/injection, schedule: Q04DX003 (ip), vehicle: saline) was 89 % of control.
With `C=C1C(=O)OC2/C=C(\CO)CC/C=C(\CO)CC(OC(=O)C(C)C)C12` (configuration not stated) the T/C (endpoint: mean survival time, dose: 3.75 mg/kg/injection, schedule: Q01DX009 (ip), vehicle: Klucel (hydroxypropylcellulose) (HPC)) was 100 % of control, the T/C (endpoint: mean survival time, dose: 7.5 mg/kg/injection, schedule: Q01DX009 (ip), vehicle: Klucel (hydroxypropylcellulose) (HPC)) was 88 % of control and the T/C (endpoint: mean survival time, dose: 15.0 mg/kg/injection, schedule: Q01DX009 (ip), vehicle: Klucel (hydroxypropylcellulose) (HPC)) was 97 % of control. For the same compound, the T/C (endpoint: mean survival time, dose: 30.0 mg/kg/injection, schedule: Q01DX009 (ip), vehicle: Klucel (hydroxypropylcellulose) (HPC)) was 105 % of control.
In the case of `CC(C)(C)OC(=O)NC(CO)C(=O)O` (configuration not stated), the T/C [1] was 92 % of control, the T/C [4] was 86 % of control and the T/C [6] was 94 % of control.
In the case of `COc1ccc(OC)c(NC(=O)Oc2cccc(NC(C)=O)c2)c1`, the T/C [7] was 105 % of control, the T/C [8] was 103 % of control and the T/C [9] was 102 % of control. For the same compound, the T/C [2] was 97 % of control, the T/C [10] was 100 % of control and the T/C [3] was 272 % of control and 100 % of control. The T/C (endpoint: mean survival time, dose: 400.0 mg/kg/injection, schedule: Q01DX009 (ip), vehicle: Klucel (hydroxypropylcellulose) (HPC)) was 102 % of control and the T/C [5] was 92 % of control.
With `CCC1(OC(=O)CN)C(=O)OCc2c1cc1n(c2=O)Cc2cc3ccccc3nc2-1` (configuration not stated) the T/C (endpoint: median survival time, dose: 7.5 mg/kg/injection, schedule: Q04DX002 (ip), vehicle: saline) was 117 % of control and 122 % of control, the T/C (endpoint: median survival time, dose: 7.5 mg/kg/injection, schedule: Q04HX004 (iv), vehicle: dextrose) was 175 % of control and the T/C (endpoint: median survival time, dose: 7.5 mg/kg/injection, schedule: Q04HX004 (iv), vehicle: other) was 186 % of control. The T/C (endpoint: median survival time, dose: 15.0 mg/kg/injection, schedule: Q04HX004 (iv), vehicle: dextrose) was 172 % of control, the T/C (endpoint: median survival time, dose: 15.0 mg/kg/injection, schedule: Q04HX004 (iv), vehicle: other) was 204 % of control and the T/C (endpoint: median survival time, dose: 30.0 mg/kg/injection, schedule: Q04DX002 (ip), vehicle: saline) was 191 % of control and 213 % of control. The T/C (endpoint: median survival time, dose: 30.0 mg/kg/injection, schedule: Q04HX004 (iv), vehicle: dextrose) was 226 % of control, the T/C (endpoint: median survival time, dose: 30.0 mg/kg/injection, schedule: Q04HX004 (iv), vehicle: other) was 219 % of control and the T/C (endpoint: median survival time, dose: 40.0 mg/kg/injection, schedule: Q04HX004 (iv), vehicle: other) was 217 % of control.
For `Oc1c(C(c2ccccc2)N2CCOCC2)ccc2ccccc12` (configuration not stated), the T/C [8] was 94 % of control, the T/C [2] was 102 % of control and the T/C [1] was 95 % of control. For the same compound, the T/C [3] was 98 % of control and the T/C [4] was 103 % of control.
In the case of `COc1c(CBr)c(CBr)c(OC)c2ccccc12`, the T/C [1] was 101 % of control, the T/C [4] was 100 % of control and the T/C [6] was 101 % of control.
For `CC(=O)Oc1ccc(N2C(=O)C=CC2=O)cc1`, the T/C (endpoint: mean survival time, dose: 12.5 mg/kg/injection, schedule: Q04DX003 (ip), vehicle: Klucel (hydroxypropylcellulose) (HPC)) was 96 % of control.
In the case of `COC(=O)CC(CC(=O)OC)N1CC=CC1`, the T/C (endpoint: mean survival time, dose: 100.0 mg/kg/injection, schedule: Q01DX001 (ip), vehicle: saline) was 100 % of control, the T/C (endpoint: mean survival time, dose: 200.0 mg/kg/injection, schedule: Q01DX001 (ip), vehicle: saline) was 98 % of control and the T/C (endpoint: mean survival time, dose: 400.0 mg/kg/injection, schedule: Q01DX001 (ip), vehicle: saline) was 108 % of control.
In the case of `c1cc(NC2CCCCC2)ccc1CN1CCOCC1`, the T/C (endpoint: mean survival time, dose: 12.5 mg/kg/injection, schedule: Q01DX009 (ip), vehicle: saline + Tween-80 + alcohol) was 99 % of control and 100 % of control, the T/C (endpoint: mean survival time, dose: 25.0 mg/kg/injection, schedule: Q01DX009 (ip), vehicle: saline + Tween-80 + alcohol) was 99 % of control and 102 % of control and the T/C (endpoint: mean survival time, dose: 50.0 mg/kg/injection, schedule: Q01DX009 (ip), vehicle: saline + Tween-80 + alcohol) was 97 % of control and 100 % of control. The T/C (endpoint: mean survival time, dose: 100.0 mg/kg/injection, schedule: Q01DX009 (ip), vehicle: saline + Tween-80 + alcohol) was 99 % of control and 103 % of control, the T/C (endpoint: mean survival time, dose: 200.0 mg/kg/injection, schedule: Q01DX009 (ip), vehicle: saline + Tween-80 + alcohol) was 94 % of control and 100 % of control and the T/C (endpoint: mean survival time, dose: 400.0 mg/kg/injection, schedule: Q01DX009 (ip), vehicle: saline + Tween-80 + alcohol) was 97 % of control and 100 % of control.
In the case of `CCOC(=O)CC1(c2ccccc2)OC(=O)c2ccccc21` (configuration not stated), the T/C [11] was 102 % of control, the T/C [12] was 87 % of control and the T/C (endpoint: mean survival time, dose: 400.0 mg/kg/injection, schedule: Q04DX002 (ip), vehicle: saline with Tween-80) was 87 % of control.
In the case of `C#CC[N+](CCO)(CCO)CCCCCCCCCCCCCCCCCC`, the T/C (endpoint: mean survival time, dose: 12.5 mg/kg/injection, schedule: Q04DX002 (ip), vehicle: saline with Tween-80) was 101 % of control, the T/C (endpoint: mean survival time, dose: 25.0 mg/kg/injection, schedule: Q04DX002 (ip), vehicle: saline with Tween-80) was 101 % of control and the T/C (endpoint: mean survival time, dose: 50.0 mg/kg/injection, schedule: Q04DX002 (ip), vehicle: saline with Tween-80) was 101 % of control.
For `Nc1nc(N)c2nc3c(nc2n1)CCCC3`, the T/C (endpoint: mean survival time, dose: 100.0 mg/kg/injection, schedule: Q01DX001 (ip), vehicle: saline with Tween-80) was 95 % of control, the T/C (endpoint: mean survival time, dose: 200.0 mg/kg/injection, schedule: Q01DX001 (ip), vehicle: saline with Tween-80) was 87 % of control and the T/C (endpoint: mean survival time, dose: 400.0 mg/kg/injection, schedule: Q01DX001 (ip), vehicle: saline with Tween-80) was 87 % of control.
In the case of `CCCNC(=O)NO`, the T/C (endpoint: mean survival time, dose: 4.0 mg/kg/injection, schedule: Q03HX024 (ip), vehicle: other) was 97 % of control, the T/C (endpoint: mean survival time, dose: 8.0 mg/kg/injection, schedule: Q03HX024 (ip), vehicle: other) was 97 % of control and the T/C (endpoint: mean survival time, dose: 16.0 mg/kg/injection, schedule: Q03HX024 (ip), vehicle: other) was 96 % of control. For the same compound, the T/C (endpoint: mean survival time, dose: 32.0 mg/kg/injection, schedule: Q03HX024 (ip), vehicle: other) was 98 % of control and the T/C (endpoint: mean survival time, dose: 64.0 mg/kg/injection, schedule: Q03HX024 (ip), vehicle: other) was 97 % of control.
`Cc1ccc(S(=O)(=O)NN2CCOC2=O)cc1` was tested, and the T/C [7] was 100 % of control, the T/C [9] was 91 % of control and the T/C [10] was 100 % of control.
For `COC(=O)CC(NC(=O)C(CSC(c1ccccc1)(c1ccccc1)c1ccccc1)NC(c1ccccc1)(c1ccccc1)c1ccccc1)C(=O)OC` (configuration not stated), the T/C (endpoint: mean survival time, dose: 50.0 mg/kg/injection, schedule: Q01DX009 (ip), vehicle: saline) was 95 % of control, the T/C (endpoint: mean survival time, dose: 100.0 mg/kg/injection, schedule: Q01DX009 (ip), vehicle: saline) was 92 % of control and the T/C (endpoint: mean survival time, dose: 200.0 mg/kg/injection, schedule: Q01DX009 (ip), vehicle: saline) was 89 % of control. The T/C (endpoint: mean survival time, dose: 400.0 mg/kg/injection, schedule: Q01DX009 (ip), vehicle: saline) was 91 % of control.
In the case of `CC(C)CCCC(C)C1CCC2C3CC4OC45CC(O)CCC5(C)C3CCC12C` (configuration not stated), the T/C [1] was 96 % of control, the T/C [4] was 90 % of control and the T/C [6] was 96 % of control.
In the case of `CC(CO)CC/C(=N\O)C(C)C1/C(=N/O)CC2C=C3CC(O)CCC3(C)CC21C` (configuration not stated), the T/C [1] was 92 % of control, the T/C [4] was 92 % of control and the T/C [6] was 87 % of control.
`COc1ccc(C(=O)C(C)(C)C)cc1` was tested, and the T/C [11] was 108 % of control and the T/C [12] was 97 % of control.
In the case of `NC(=O)N/N=C\c1ccco1`, the T/C [1] was 102 % of control.
With `S=c1[nH]n(-c2ccccc2)c(=S)s1` the T/C (endpoint: mean survival time, dose: 75.0 mg/kg/injection, schedule: Q04DX003 (ip), vehicle: saline) was 100 % of control.
In the case of `O=[N+]([O-])c1ccc(Sc2ccc([N+](=O)[O-])cc2)cc1`, the T/C [1] was 88 % of control and the T/C [4] was 92 % of control.
For `CCN(CC)CCCC(C)Nc1cc(C)nc(Nc2nc3cc(Cl)c(Cl)cc3[nH]2)n1` (configuration not stated), the T/C (endpoint: mean survival time, dose: 5.0 mg/kg/injection, schedule: Q04DX003 (ip), vehicle: saline with Tween-80) was 101 % of control, the T/C (endpoint: mean survival time, dose: 10.0 mg/kg/injection, schedule: Q04DX003 (ip), vehicle: saline with Tween-80) was 94 % of control and the T/C (endpoint: mean survival time, dose: 20.0 mg/kg/injection, schedule: Q04DX003 (ip), vehicle: saline with Tween-80) was 91 % of control.
